Key:
[1] = tested on: rats with memory loss induced by scopolamine; test: Passive avoidance response test (step-through shuttle box); type: in vivo, Sprague-Dawley rats; settings: selegiline 2 mg/kg/day and/or Ginkgo biloba extract 48 mg/kg/day p.o. for 3 weeks; scopolamine 6 mg/kg; Figure 1
Protocol: (§1) To evaluate effects on memory and learning functions, rats of each group were challenged with injection of scopolamine, a drug which cause memory loss and then, subjected to the following tests.
Rats of each group were previously subjected to the adaptation training and subsequent exercises in a shuttle box of step-through type. In the real experiment, scopolamine at a dose of 6 mg/kg was given intraperitoneally and, after 30 minutes, passive avoidance responses were determined. Longer latency in response time indicate improved memory and learning fuctions.
In a step-through passive avoidance test, rats of both normal and test group treated with drugs for 3 weeks were put in a shuttle box and tested for latency time required for avoidance response after being given with scopolamine injection to induce memory loss and the results are shown in Figure 1.

[2] = tested on: glutathione(GSH) peroxidase; test: Glutathione peroxidase activity after partial ischemia and reperfusion; settings: cerebral cortex; 30 min ischemia, 3 hours reperfusion; 3-week treatment; mean±S.E. (n=6)
[3] = tested on: cerebral cortex of ischaemic rats; test: Dopamine and its metabolites concentrations in partial ischemia (HPLC-ECD); settings: vs control, Figure 3
[4] = tested on: pyramidal neuronal cells at CA1 (Ammon's horn) area of the hippocampus; test: Histopathological examination of hippocampus after complete ischemia and reperfusion (cresyl-violet staining); type: in vivo, Mongolian gerbil
Protocol: Gerbils of both control and test groups were anesthetized with injection of pentobarbital sodium at a dose of 50 mg/kg and the carotid arteries on both sides were closed for 5 minutes to induce complete ischemia. After 7 days from initiation of reperfusion, tissues were examined by means of cresyl-violet staining.
Tissue examination under cresyl-violet staining mentioned above was done as follows. Excised cerebellum was cut into slices using sliding microtome and the slices were treated sequentially with xylene and alcohol for five minutes and finally, soaked into distilled water for another 5 minutes. Then, the slice was stained with cresyl-violet which had been prepared in advance.
After staining, the slice was washed one time for 30 minutes with flowing water, followed by dehydrating in alcohol and subsequent two time washings with xylene for 10 minutes. Then, a cover glass was placed on and the specimen was examined under optical microscope.
In the cases of complete ischemia and subsequent reperfusion, biochemical changes will appear initially but some morphological changes may result after a few days. […]

[5] = tested on: SOD(Superoxide dismutase); test: SOD activity after partial ischemia and reperfusion; type: in vivo, Sprague-Dawley rats; settings: cerebral cortex; 30 min ischemia, 3 hours reperfusion; 3-week treatment; mean±S.E. (n=6)
Protocol: The supernatant was used as sample.
Previously, a test tube containing 2.3 mℓ of phosphate buffer with pH 7.8, 300 µℓ of 0.5 mM Na-xanthine, 100 µℓ of 50 µm K-cyanide and 100 µℓ of 2.4 mM Na-deoxycholate was prepared and kept in a water bath of 25 °C. To this test tube, 300 µℓ of 0.1 mM ferricytochrome and sample were added.
Then. the solution was transferred to a cell, 100 µℓ of xanthine oxidase was added, a sealing tape was placed on the cell and, while closing well with fingers, the cell was carefully shaken to mix. Changes in absorbance were measured and recorded for one minute at the wavelength of 550 nm.

MDA(Malondialdehyde) = test: Malondialdehyde measurement after partial ischemia and reperfusion; settings: cerebral cortex; 30 min ischemia, 3 hours reperfusion; 3-week treatment; mean±S.E. (n=6)
[6] = tested on: rats with memory loss induced by scopolamine; test: 8-arm radial maze test; type: in vivo, Sprague-Dawley rats; settings: selegiline 2 mg/kg/day and/or Ginkgo biloba extract 48 mg/kg/day p.o. for 3 weeks; scopolamine 6 mg/kg; compared with control group; Figure 2
Protocol: as §1
According to 01 ton and Samuelson methods[J. Exp. Psychol. Anim. Behav. Proc. 2, 97(1976)], 8-arm radial maze test system was used. That is, rats of each group were placed in the center of the eight 65-cm arms of the maze test system, which are radially stretched, and 45 mg each of pellet type feed was placed at the end of each arm. Rats were trained to visit the arm-ends to get the pellet type feeds. In real experiment, rats were pre-treated with intraperitoneal injection of scopolamine at a dose of 6 mg/kg as a challenge and subjected to the test after 30 minutes from injection.
Test was repeated for fifty(50) times. Smaller visit errors indicate gained improvements in memory and learning functions.
In order to induce memory loss, scopolamine was injected to the rats of both normal and test groups which received drug treatment for 3 weeks and then the rats were placed in the center of the 8-arm maze test system to record numbers of visit errors to the respective arms.

[7] = tested on: cerebral cortex of ischemic rats; test: Energy metabolites in the cerebral cortex in partial ischemia; settings: 3-week treatment, mean±S.E. (n=6)

## C#CCN(C)[C@H](C)Cc1ccccc1 [Selegiline]
[1]
  avoidance response time (latency): significant increase
[2]
  GSH peroxidase: 2.04±0.22 units/mg protein
[3]; 3-week p.o. selegiline 2 mg/kg/day and/or Ginkgo biloba extract 48 mg/kg/day
  content of dopamine: significant increases
[3]; 3-week p.o. treatment
  contents of HVA(Homovanillic acid): decreased significantly
[4]; 5 min complete ischemia, 7 days reperfusion, 3-week treatment, Figures 4e-4j
  protection of pyramidal cells at CA1 Ammon's horn site of the hippocampus: did not show any effects of significance for protection of the cells
[4]; CA1 site of the hippocampus, mean ± standard error (n=3-4)
  Nerve Cell Density: 45±10 /mm
[5]
  SOD activity: 0.42±0.04 units/mg protein
MDA(Malondialdehyde)
  MDA: 1.80±0.22 nmol/mg protein
[6]
  visit errors: tended to decrease
[7]
  ATP: 1.12±0.04 µmol /g wet wt.
  Glucose: 1.21 ±0.02 µmol/g wet wt.
  Lactate: 5.42±0.15 µmol/g wet wt.
  Pyruvate: 0.10±0.011 µmol/g wet wt.

— patent EP1171146B1, “PHARMACEUTICAL CO[…] GINKGO BILOBA EXTRACT USEFUL FOR TREATING DEMENTIA” (priority 1999, dated 2000)
